Measured values taken from US7062219B2, “Protein fragment complementation assays for high-throughput and high-content screening” (Odyssey Thera Inc., priority 1997, dated 2006).

How the values were obtained:
Type in all cases: cell-based
[1] = tested on: p53/p53 homo-dimerization; assay: Renilla luciferase PCA (RLuc PCA) for p53/p53 in HEK293T cells
From the text: Either the wild type RLuc F1 or the mutant RLuc F1(C124A) can be used in combination with the RLuc F2 fragment provided above to generate luminescent PCAs. The following examples below show the results obtained with the wild-type RLuc fragments. The F1 and F2 fragments described above were created by oligonucleotide synthesis (Blue Heron Biotechnology, Bothell, Wash.) and were designated RL[1] (aa 1–160) and RL[2] (aa 161–311). […]
STAT1/PDK2 served as a negative control PCA. […] Isolated DNAs were quantitated and then normalized to a concentration of 50 ng/microliter.
(§1) The luciferase PCA was constructed to quantify the homo-dimerization of p53 (p53/p53 PCA) and compared to a negative control RLuc PCA (Pdk2/STAT1). […] For each sample, the luminescence released was captured over 10 seconds, with a 2 second delay after addition of substrate to the sample. Data are reported as relative luminescence units (RLU), and have not been normalized to protein content.
For each condition tested, cells were transfected in quadruplicate with 0.1 microgram of total DNA (50 ng each of RL[1]-p53 and RL[2]-p53) using Fugene transfection reagent as above. […] Drug was removed by washing two times with PBS, and cell lysates were prepared as described above prior to performing a Renilla Luciferase luminescence detection assay (Promega). […]

Pdk2:STAT1 = assay: negative control RLuc PCA (Pdk2/STAT1) in HEK293T cells; settings: 500 nM CPT for 18 hours
From the text: STAT1/PDK2 served as a negative control PCA. The full coding sequences for p53, STAT1 and PDK2 were amplified by PCR from sequence verified full-length cDNAs. The resulting PCR products were desalted, digested with appropriate restriction enzymes to allow directional cloning, and fused in-frame to either the 5′ or 3′-end of RL[1], RL[2], RL[3] or RL[4] through a linker encoding a flexible 10 amino acid peptide (GGGGS)2 (SEQ ID No.1) to assure that the orientation/arrangement of the fusions in space is optimal to bring the fluorescent protein fragments into close proximity. DNAs from recombinant constructs were isolated using Qiagen Turbo BioRobot Prep kits (Qiagen, Chatsworth, Calif.) on a Beckman FX robotic workstation (Beckman Coulter, Fullerton, Calif.). Isolated DNAs were quantitated and then normalized to a concentration of 50 ng/microliter.
as §1, with “content. […]” for “content.”

PDK1/hFt1 complex = assay: GFP PCA for PDK1/hFt1 in COS-1 cells, fluorometric analysis and microscopy; settings: 10% serum or 20 μg/ml insulin, 30 min
From the text: (§2) DNA Constructs. The full-length cDNAs encoding PKB, PDK1, PKCalpha, the catalytic subunit of PKA (PKAc), GSK3beta, BAD, Caspase 9 and FKHRL1 were amplified by PCR and subcloned into the eukaryotic expression vector pMT3 [Kaufman, 1989 #23], 5′ of the F[2] fragment of GFP. GFP[1] corresponds to amino acids 1 to 158 and GFP[2] to amino acids 159 to 239 of GFP and was amplified by PCR from pCMS-EGFP (Clontech). The PKB-GFP[2] fusion was also inserted in a pMT3 vector where the ampicillin resistance gene has been replaced by a chloramphenicol resistance gene (pMT3-chloramphenicol) for the purpose of the cDNA library screen. In all cases, a 10 amino acid flexible linker consisting of (GGGGS)2 (SEQ ID No.1) was inserted between the cDNA and the GFP fragments to assure that the orientation/arrangement of the fusions in space is optimal to bring the protein fragments into close proximity. […]
(§3) COS-1 cells were split in 12-well plates 24 h before transfection. […] The relative amount of reconstituted GFP, a measure of the interaction between the fused protein partners, was detected by fluorometric analysis. […] The background fluorescence intensity corresponding to non-transfected cells was subtracted from the fluorescence intensities of all of the samples. The sub-cellular location of the hFt1/PKB and hFt1/PDK1 protein-protein complexes was also determined by fluorescence microscopy in live cells. […]

PKB/hFt1 complex = assay: GFP PCA for PKB/hFt1 in COS-1 cells, fluorometric analysis and microscopy; settings: 10% serum or 20 μg/ml insulin, 30 min
From the text: as §2, §3

CC[C@@]1(O)C(=O)OCc2c1cc1n(c2=O)Cc2cc3ccccc3nc2-1 [camptothecin] was tested, and the “increase in luminescence relative to vehicle (0.1% DMSO)” value ([1]; 500 nM CPT for 18 hours, HEK293T lysates) was 27%, the “effect on the p53/p53 interaction in the RLuc PCA (in words)” value ([1]; FIG. 3(B)) was “induction” and the “effect on luminescence of the negative control PCA” value (Pdk2:STAT1) was “no effect”.
For “insulin: insulin (Roche Diagnostics), pathway stimulus”, the “amount of the PDK1/hFt1 complexes (fluorescence)” value (PDK1/hFt1 complex) was “increase”, the “subcellular location of PDK1/hFt1 complexes” value (PDK1/hFt1 complex) was “redistribution of the protein-protein complexes from the cytosol to the membrane” and the “amount of the PKB/hFt1 complexes (fluorescence)” value (PKB/hFt1 complex) was “increase”. The “subcellular location of PKB/hFt1 complexes” value (PKB/hFt1 complex) was “redistribution of the protein-protein complexes from the cytosol to the membrane”.
